Patent US11976083B2, “Inhibitors of peptidylarginine deiminases” (Gilead Sciences, Inc., priority 2020, dated 2024)

Target: T1, human PAD4 (Homo sapiens, UniProt Q9UM07)
T1 construct: human PAD4 (NM_012387), A2-P663, was PCR amplified; His-SUMO (N, cleaved yes); made in house; host or cells: E. coli BL21(DE3)
Assay: In vitro PAD4 BAEE biochemical assay
Settings: BAEE substrate 3 mM, 5 nM PAD4, 2 mM calcium chloride; geometric mean of multiple experiments
How it was run: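 Recombinant PAD4 (5 nM final) with 2 mM CaCl2 was preincubated with compound for 30 min at 25 °C in MOPS pH 7.6 buffer with DTT, then reacted with 3 mM BAEE for 2 h at 25 °C. Released ammonia was detected fluorimetrically with o-phthalaldehyde/DTT; IC50 from four-parameter fit, geometric mean of experiments.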

T1 sequence (Q9UM07 2-663): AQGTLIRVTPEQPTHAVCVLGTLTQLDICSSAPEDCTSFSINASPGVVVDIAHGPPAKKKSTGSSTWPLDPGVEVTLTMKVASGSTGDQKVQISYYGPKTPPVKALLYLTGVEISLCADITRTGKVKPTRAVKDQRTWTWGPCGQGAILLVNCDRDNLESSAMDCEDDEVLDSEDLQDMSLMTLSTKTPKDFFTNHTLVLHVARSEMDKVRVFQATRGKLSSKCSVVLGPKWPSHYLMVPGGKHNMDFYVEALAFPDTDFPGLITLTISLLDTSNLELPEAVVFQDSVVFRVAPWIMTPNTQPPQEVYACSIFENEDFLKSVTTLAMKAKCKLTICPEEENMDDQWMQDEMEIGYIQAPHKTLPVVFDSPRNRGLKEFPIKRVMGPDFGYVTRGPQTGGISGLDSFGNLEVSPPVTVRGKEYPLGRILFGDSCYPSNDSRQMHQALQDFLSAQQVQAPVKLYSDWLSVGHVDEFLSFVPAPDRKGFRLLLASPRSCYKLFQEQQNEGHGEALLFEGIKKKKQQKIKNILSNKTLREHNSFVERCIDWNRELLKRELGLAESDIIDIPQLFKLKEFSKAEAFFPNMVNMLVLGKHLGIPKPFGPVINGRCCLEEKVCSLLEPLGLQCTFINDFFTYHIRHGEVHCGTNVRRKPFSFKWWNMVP

Row | SMILES | IC50
1 | C[C@H]1NC(=O)[C@](F)(c2ccccn2)CCCCCCn2c(-c3nc4cc(C(=O)N5C[C@H](N)[C@@H]6CC[C@H]5C6)cc(F)c4n3C3CC3)cc3ccc1nc32 [Example 886, (8~{R},11~{R})-17-[5-[(1~{S),4~{R},5~{R))-4-amino-2-azabicyclo[3.2.1]octane-2-carbonyl]-1-cyclopropyl-7-fluoro-benzimidazol-2-yl]-8-fluoro-11-methyl-8-(2-pyridyl)-1,10,19-triazatricyclo [10.5.2.0^{15,18}]nonadeca-12(19),13,15(18), 16-tetraen-9-one] | 29 nM
2 | COc1cc(C(=O)N2C[C@H](N)[C@@H]3CC[C@H]2C3)cc2nc(-c3cc4ccc5nc4n3CCCCCC[C@@](F)(c3cccc(Cl)n3)C(=O)N[C@@H]5C)n(C)c12 [Example 887, (8~{R},11~{R})-17-[5-[(1~{S),4~{R},5~{R})-4-amino-2-azabicyclo[3.2.1]octane-2-carbonyl]-7-methoxy-1-methyl-benzimidazol-2-yl]-8-(6-chloro-2-pyridyl)-8-fluoro-11-methyl-1,10,19-triazatricyclo[10.5.2.0^ {15,18}]nonadeca-12(19),13,15(18), 16-tetraen-9-one] | 52 nM
3 | COc1cc(C(=O)N2C[C@H](N)[C@@H]3CC[C@H]2C3)cc2nc(-c3cc4ccc5nc4n3CCCCCC[C@](F)(c3cccc(Cl)n3)C(=O)N[C@@H]5C)n(C)c12 [Example 888, (8~{S},11~{R})-17-[5-[(1~{S},4~{R},5~{R})-4-amino-2-azabicyclo[3.2.1]octane-2-carbonyl]-7-methoxy-1-methyl-benzimidazol-2-yl]-8-(6-chloro-2-pyridyl)-8-fluoro-11-methyl-1,10,19-triazatricyclo[10.5.2.0^ {15,18}]nonadeca-12(19), 13,15(18),16-tetraen-9-one] | 37 nM
4 | COc1cc(C(=O)N2C[C@H](N)[C@@H]3CC[C@H]2C3)cc2nc(-c3cc4ccc5nc4n3CCCCCC[C@](c3ccccn3)(C(F)F)C(=O)N[C@@H]5C)n(C)c12 [Example 889, (8~{R},11~{R})-17-[5-[(1~{S},4~{R},5~{R})-4-amino-2-azabicyclo[3.2.1]octane-2-carbonyl]-7-methoxy-1-methyl-benzimidazol-2-yl]-8-(difluoromethyl)-11-methyl-8-(2-pyridyl)-1,10,19-triazatricyclo [10.5.2.0^{15,18}]nonadeca-12(19),13,15(18),16-tetraen-9-one] | 54 nM
5 | COc1cc(C(=O)N2C[C@H](N)[C@@H]3CC[C@H]2C3)cc2nc(-c3cc4ccc5nc4n3CCCCCC[C@@](c3ccccn3)(C(F)F)C(=O)N[C@@H]5C)n(C)c12 [Example 890, (8~{S},11~{R})-17-[5-[(1~{S},4~{R},5~{R})-4-amino-2-azabicyclo[3.2.1]octane-2-carbonyl]-7-methoxy-1-methyl-benzimidazol-2-yl]-8-(difluoromethyl)-11-methyl-8-(2-pyridyl)-1,10,19-triazatricyclo [10.5.2.0^{15,18}]nonadeca-12(19),13,15(18), 16-tetraen-9-one] | 10 nM
6 | COc1cc(C(=O)N2C[C@H](N)[C@@H]3CC[C@H]2C3)cc2nc(-c3cc4ccc5nc4n3CCCCCC[C@@H](c3ccccn3)C(=O)N[C@@H]5C)n(C)c12 [Example 891, (8~{S),11~{R})-17-[5-[(1~{S},4~{R},5~{R})-4-amino-2-azabicyclo[3.2.1]octane-2-carbonyl]-7-methoxy-1-methyl-benzimidazol-2-yl]-11-methyl-8-(2-pyridyl)-1,10,19-triazatricyclo[10.5.2.0^ {15,18}]nonadeca-12(19), 13,15(18),16-tetraen-9-one] | 13 nM
7 | COc1cc(C(=O)N2C[C@H](N)[C@@H]3CC[C@H]2C3)cc2nc(-c3cc4ccc5nc4n3CCCCCC[C@H](c3ccccn3)C(=O)N[C@@H]5C)n(C)c12 [Example 892, (8~{R},11~{R})-17-[5-[(1~{S},4~{R},5~{R})-4-amino-2-azabicyclo[3.2.1]octane-2-carbonyl]-7-methoxy-1-methyl-benzimidazol-2-yl]-11-methyl-8-(2-pyridyl)-1,10,19-triazatricyclo[10.5.2.0^{15,18}] nonadeca-12(19), 13,15(18),16-tetraen-9-one] | 27 nM
8 | COc1cc(C(=O)N2C[C@H](N)[C@@H]3CC[C@H]2C3)cc2nc(-c3cc4ccc5nc4n3CCC[C@H]3C[C@@H]3c3ccccc3C(=O)N[C@@H]5C)n(C)c12 [Example 893] | 28 nM
9 | COc1cc(C(=O)N2C[C@H](N)[C@@H]3CC[C@H]2C3)cc2nc(-c3cc4ccc5nc4n3CCCCCc3c(F)cc(F)cc3C(=O)N[C@@H]5C)n(C)c12 [Example 894, (2~{R})-17-[5-[(1~{S},4~ {R},5~{R})-4-amino-2-azabicyclo[3.2.1]octane-2-carbonyl]-7-methoxy-1-methyl-benzimidazol-2-yl]-7,9-difluoro-2-methyl-3,16,22-triazatetracyclo [14.5.2.0^{5,10).0^{19,23}] tricosa-1(22),5(10),6,8,17, 19(23),20-heptaen-4-one] | 72 nM
10 | C[C@H]1NC(=O)c2ccc(Cl)nc2CCCCCn2c(-c3nc4cc(C(=O)N5C[C@H](N)[C@@H]6CC[C@H]5C6)cc(F)c4n3C3CC3)cc3cc(F)c1nc32 [Example 895, (2~{R})-17-[5-[(1~{S},4~{R}, 5~{R})-4-amino-2-azabicyclo [3.2.1]octane-2-carbonyl]-1-cyclopropyl-7-fluoro-benzimidazol-2-yl]-8-chloro-21-fluoro-2-methyl-3,9,16,22-tetrazatetracyclo[14.5.2.0^ {5,10).0^{19,23}]tricosa-1(22),5(10),6,8,17,19(23),20-heptaen-4-one] | 34 nM
11 | COc1cc(C(=O)N2C[C@H](N)[C@@H]3CC[C@H]2C3)cc2nc(-c3cc4ccc5nc4n3CCCCCc3cc(C(F)F)ccc3C(=O)N[C@@H]5C)n(C)c12 [Example 896, (2~{R})-17-[5-[(1~{S),4~{R},5~ {R})-4-amino-2-azabicyclo [3.2.1]octane-2-carbonyl]-7-methoxy-1-methyl-benzimidazol-2-yl]-8-(difluoromethyl)-2-methyl-3,16,22-triazatetracyclo [14.5.2.0^{5,10}.0^{19,23}] tricosa-1(22),5(10),6,8,17,19(23), 20-heptaen-4-one] | 56 nM
12 | COc1cc(C(=O)N2C[C@H](N)[C@@H]3CC[C@H]2C3)cc2nc(-c3cc4ccc5nc4n3CCCCCc3ccc(F)c(F)c3C(=O)N[C@@H]5C)n(C)c12 [Example 897, (2~{R})-17-[5-[(1~{S),4~{R}, 5~{R})-4-amino-2-azabicyclo [3.2.1]octane-2-carbonyl]-7-methoxy-1-methyl-benzimidazol-2-yl]-6,7-difluoro-2-methyl-3,16,22-triazatetracyclo [14.5.2.0^{5,10}.0^{19,23}] tricosa-1(22),5(10),6,8,17, 19(23),20-heptaen-4-one] | 40 nM
13 | COc1cc(C(=O)N2C[C@H](N)[C@@H]3CC[C@H]2C3)cc2nc(-c3cc4ccc5nc4n3CCCCCc3c(ccc(Cl)c3F)C(=O)N[C@@H]5C)n(C)c12 [Example 898, (2~{R})-17-[5-[(1~{S},4~{R},5~ {R})-4-amino-2-azabicyclo [3.2.1]octane-2-carbonyl]-7-methoxy-1-methyl-benzimidazol-2-yl]-8-chloro-9-fluoro-2-methyl-3,16,22-triazatetracyclo[14.5.2.0^ {5,10}.0^{19,23}]tricosa-1(22),5(10),6,8,17,19(23),20-heptaen-4-one] | 156 nM
